Experimental data published in patent US9751875B2, “Quinine compounds, and optical isomers, preparation method and medical use thereof” (BEIJING FSWELCOME TECHNOLOGY DEVELOPMENT CO., LTD., priority 2013, dated 2017).
Where two headings read alike, the source gives them in different places.

Experiments:
[1] = test system: tracheal smooth muscle from guinea pigs (contraction induced by 3 × 10^−6 mol/L of CCh); test: Antagonism in vitro of contraction of isolated tracheal smooth muscle from guinea pigs induced by carbachol (CCh); format: cell-based, guinea pig
[2] = test system: tracheal smooth muscle from guinea pigs (contraction induced by 3 × 10^−6 mol/L of CCh); test: as above; format: cell-based, guinea pig; settings: cumulative dosing
From the text: Preparation of the Isolated Tracheal Smooth Muscle Specimen from a Guinea Pig:
After a guinea pig was narcotized with urethane, the trachea between the throat and carina of the guinea pig was taken out rapidly, and placed in the Krebs-Henseleit (K-H) solution (composition (g/L): NaCl 6.92, KCl 0.35, CaCl2 0.28, KH2PO4 0.16, MgSO4.7H2O 0.4568, NaHCO3 2.1, Glucose 2.0) with a mixture gas of 5% CO2 and 95% O2 purged. After loose connective tissues and fats around the trachea were separated, the trachea was cut into trachea pieces having a width of about 3 mm and a length of 20 mm by a surgical scissor, with both ends of the trachea piece ligated with 4˜0 silk suture, and then placed into a thermostatic bath containing 5 ml of K—H solution (pH 7.4) at 37° C., with the mixture gas of 5% CO2 and 95% O2 continuously purged. A muscle tension transducer was connected to the upper end so as to apply 1.0 g of resting tension to the specimen, the change of the tension was recorded, the culture solution was replaced every 20 min, and the test was started after being balanced for 60 min.
Administration method: After the trachea piece was stabilized, 3×10^−6 mol/L of CCh was added into a bath, and after the contractile tension of the trachea piece reached a peak level, the example compounds, ipratropium bromide and tiotropium bromide were added into a Magnus bath by a cumulative dosing regimen with a dosage of 10^−9˜10^−5 mol, respectively, and the diastolic condition of the trachea piece was observed: if no response occurred (below the threshold concentration), a next dosage was continued to be added in sequence; if response occurred, after it reached a diastolic plateau, a next dosage was further added. The above operation was repeated until the contractile curve reached the minimum value. Finally, 10^−6 mol/L of isoprenaline was added so that the maximum relaxation would be reached and the curve was recorded.
Statistical approach: The result was expressed as mean ±standard deviation, and counted by Sigma Stat statistical package. The data was analyzed by using variance analysis, the comparison among means of a plurality of specimen was performed by using Student-Newman-Keuls(SNK) test; statistical significant level α=0.05 (bilateral).
Compounds shown in Table 5 were further prepared according to the present invention, and their IC50 […] of resistance to the contraction of tracheal smooth muscle from guinea pigs induced by a concentration of 3×10^−6 mol/L of CCh was determined.

[3] = read-out: IC50 (μM), antagonism in vitro against the contraction of the tracheal smooth muscle induced by CCh, 3 × 10^−6 mol/L of CCh
[4] = Cavia porcellus, 3 × 10^−6 mol/L of CCh, read-out: IC50 (μM), antagonism in vitro against the contraction of the tracheal smooth muscle induced by CCh
[5] = Cavia porcellus, read-out: IC50 (μM), antagonism in vitro against the contraction of the tracheal smooth muscle induced by CCh, 3 × 10^−6 mol/L of CCh
[6] = 3 × 10^−6 mol/L of CCh, read-out: IC50 (μM), antagonism in vitro against the contraction of the tracheal smooth muscle induced by CCh

For `OC(CO[C@@H]1C[N+]2(CCCOc3ccccc3)CCC1CC2)(c1ccccc1)C1CC1.[Br-]` (stereo partly drawn) [Example 21, (2S,3R)-3-[(2-cyclopropyl-2-hydroxyl-2-phenyl)ethoxyl]-1-(3-phenoxypropyl)-1-azabicyclo[2,2,2]octane bromide], the “Onset time” value [1] was 6.79 min, the “Time for eliminating inhibition effect (min)” value [1] was “more than 300 min” and the IC50 [2, 3] was 1.35 µM.

For `OC(CO[C@@H]1C[N+]2(CCCOc3ccccc3)CCC1CC2)(c1ccccc1)C1CC1.[Br-]` (stereo partly drawn) [Example 22, (2R,3R)-3-[(2-cyclopropyl-2-hydroxyl-2-phenyl)ethoxyl]-1-(3-phenoxypropyl)-1-azabicyclo[2,2,2]octane bromide], the “Onset time” value [1] was 6.45 min, the “Time for eliminating inhibition effect (min)” value [1] was “more than 300 min” and the IC50 [2, 3] was 0.373 µM.

`OC(CO[C@H]1C[N+]2(CCCOc3ccccc3)CCC1CC2)(c1ccccc1)C1CC1` (stereo partly drawn) [Example 24, (2R,3R),(2S,3S) Configuration of 3-[(2-cyclopropyl-2-hydroxyl-2-phenyl)ethoxyl]-1-(3-phenoxypropyl)-1-azabicyclo[2,2,2]octane bromide] was tested, and the “Onset time” value [1] was 6.58 min, the “Time for eliminating inhibition effect (min)” value [1] was “more than 300 min” and the IC50 [2, 4] was 0.451 µM.

In the case of `OC(CO[C@@H]1C[N+]2(CCOc3ccccc3)CCC1CC2)(c1ccccc1)C1CCCC1.[Br-]` (stereo partly drawn) [Example 25, (2S,3R)-3-[(2-cyclopentyl-2-hydroxyl-2-phenyl)ethoxyl]-1-(2-phenoxyethyl)-1-azabicyclo[2,2,2]octane bromide], the “Onset time” value [1] is reported as 6.36 min, the “Time for eliminating inhibition effect (min)” value [1] is reported as “more than 300 min” and the IC50 [2, 5] is reported as 0.867 µM.

`OC(CO[C@@H]1C[N+]2(COc3ccccc3)CCC1CC2)(c1ccccc1)C1CCCC1.[Br-]` (stereo partly drawn) [Example 27, (2R,3R)-3-[(2-cyclopentyl-2-hydroxyl-2-phenyl)ethoxyl]-1-phenoxymethyl-1-azabicyclo[2,2,2]octane bromide] was tested, and the “Onset time” value [1] was 5.89 min, the “Time for eliminating inhibition effect (min)” value [1] was “more than 300 min” and the IC50 [2, 5] was 0.0363 µM.

With `OC(CO[C@@H]1C[N+]2(COCOc3ccccc3)CCC1CC2)(c1ccccc1)C1CCCC1.[Cl-]` (stereo partly drawn) [Example 28, (2R,3R)-3-[(2-cyclopentyl-2-hydroxyl-2-phenyl)ethoxyl]-1-phenoxymethoxymethyl-1-azabicyclo[2,2,2]octane chloride] the “Onset time” value [1] was 6.06 min, the “Time for eliminating inhibition effect (min)” value [1] was “more than 300 min” and the IC50 [2, 4] was 0.0264 µM.

`OC(COC1C[N+]2(CCCOc3ccccc3)CCC1CC2)(c1cccc2ccccc12)C1CCCC1.[Br-]` [Example 29, (2R,3R)-3-[(2-cyclopentyl-2-hydroxyl-2-naphthyl)ethoxyl]-1-(3-phenoxypropyl)-1-azabicyclo[2,2,2]octane bromide] was tested, and the “Onset time” value [1] was 7.14 min, the “Time for eliminating inhibition effect (min)” value [1] was “more than 300 min” and the IC50 [2, 5] was 0.723 µM.

`OC(COC1C[N+]2(CCCOc3ccccc3)CCC1CC2)(c1ccccc1Cl)C1CCCC1.[Br-]` [Example 30, (2R,3R)-3-[(2-cyclopentyl-2-hydroxyl-2-o-chlorophenyl)ethoxyl]-1-(3-phenoxypropyl)-1-azabicyclo[2,2,2]octane bromide] was tested, and the “Onset time” value [1] was 5.98 min, the “Time for eliminating inhibition effect (min)” value [1] was “more than 300 min” and the IC50 [2, 5] was 0.0371 µM.

With `OC(COC1C[N+]2(CCCOc3ccccc3)CCC1CC2)(c1cccnc1)C1CCCC1.[Br-]` [Example 31, (2R,3R)-3-[(2-cyclopentyl-2-hydroxyl-2-(3-pyridyl))ethoxyl]-1-(3-phenoxypropyl)-1-azabicyclo[2,2,2]octane bromide] the “Onset time” value [1] was 6.37 min, the “Time for eliminating inhibition effect (min)” value [1] was “more than 300 min” and the IC50 [2, 5] was 0.0206 µM.

With `OC(COC1C[N+]2(CCCOc3ccccc3)CCC1CC2)(c1ccco1)C1CCCC1.[Br-]` [Example 32, (2R,3R)-3-[(2-cyclopentyl-2-hydroxyl-2-(2-furyl))ethoxyl]-1-(3-phenoxypropyl)-1-azabicyclo[2,2,2]octane bromide] the “Onset time” value [1] was 5.85 min, the “Time for eliminating inhibition effect (min)” value [1] was “more than 300 min” and the IC50 [2, 5] was 0.0379 µM.

In the case of `COC(COC1C[N+]2(CCCOc3ccccc3)CCC1CC2)(c1cccnc1)C1CCCC1.[Br-]` [Example 33, (2R,3R)-3-[(2-cyclopentyl-2-methoxyl-2-(3-pyridyl))ethoxyl]-1-(3-phenoxypropyl)-1-azabicyclo[2,2,2]octane bromide], the “Onset time” value [1] is reported as 6.17 min, the “Time for eliminating inhibition effect (min)” value [1] is reported as “more than 300 min” and the IC50 [2, 5] is reported as 0.139 µM.

With `CC(C)[N+]1(C)[C@@H]2CC[C@H]1CC(OC(=O)C(CO)c1ccccc1)C2.[Br-]` (stereo partly drawn) [ipratropium bromide, reference compound] the “Onset time” value [1] was 6.82 min, the “Time for eliminating inhibition effect” value [1] was 185 min and the IC50 [2, 6] was 0.0361 µM.

In the case of `C[N+]1(C)[C@@H]2C[C@@H](OC(=O)C(O)(c3cccs3)c3cccs3)C[C@H]1[C@@H]1O[C@@H]12` [tiotropium bromide, reference compound], the “Onset time” value [1] is reported as 30.37 min, the “Time for eliminating inhibition effect (min)” value [1] is reported as “more than 300 min” and the IC50 [2, 5] is reported as 0.0142 µM.

With “(2R,3R),(2S,3S) Configuration of 3-[(2-cyclopentyl-2-hydroxyl-2-phenyl)ethoxyl]-1-(3-phenoxypropyl)-1-azabicyclo[2,2,2]octane bromide [Example 6]” the “Onset time” value [1] was 6.61 min, the “Time for eliminating inhibition effect (min)” value [1] was “more than 300 min” and the IC50 [2, 6] was 0.156 µM.

With “(2R,3R),(2S,3S)-3-[(2-cyclohexyl-2-hydroxyl-2-phenyl)ethoxyl]-1-(3-phenoxypropyl)-1-azabicyclo[2,2,2]octane bromide [Example 12]” the “Onset time” value [1] was 7.13 min, the “Time for eliminating inhibition effect (min)” value [1] was “more than 300 min” and the IC50 [2, 6] was 0.251 µM.

With “(2R,3S),(2S,3R)-3-[(2-cyclopropyl-2-hydroxyl-2-phenyl)ethoxyl]-1-(3-phenoxypropyl)-1-azabicyclo[2,2,2]octane bromide [Example 23]” the “Onset time” value [1] was 6.78 min, the “Time for eliminating inhibition effect (min)” value [1] was “more than 300 min” and the IC50 [2, 6] was 2.02 µM.
